Measured values from US7399869B2, “Fibroblast activation protein inhibitor compounds and methods” (Genentech, Inc., priority 2005, dated 2008).

Tests used:
Type in all cases: biochemical
DPP-8 = target: T1, DPP-8 (Homo sapiens, UniProt Q6V1X1); test: Relative cleavage of unblocked and N-blocked Gly-Pro-AFC by DPP-8; conditions: protease DPP-8; unblocked vs N-blocked substrate
T1 construct: 2-883 of DPP-8; FLAG (N); made in house; host or cells: 293 cells; template plasmid from Origene
Protocol: (§1) The relative cleavage rates by FAP and several dipeptidases of N-blocked (8) and unblocked (7) Gly-Pro dipeptide substrates were measured.
(§2) Protease Assays—Protease activity was monitored continuously using a SpectraMax M2 microplate reader (Molecular Devices Corp., Sunnyvale Calif.) in the kinetic mode. Assays were conducted at 23° C. in 50 mM Tris (pH 7.4), 100 mM NaCl, 1 mM EDTA. The excitation/emission wavelengths for the different fluorogenic substrates were 360/460 nm (AMC), 400/505 nm (AFC), 340/425 nm (MNA), 340/510 nm (EDANS), and 337/425 nm (Abs). Standard curves of the appropriate fluorescent product versus concentration were used to convert relative fluorescence units to nmol of product produced. Substrates in the X-Pro-AMC library were used in rate assays at 5 μM final concentration. […] The kinetic parameters were calculated from Michaelis-Menten plots (V0 versus [S]) with nonlinear regression analysis using GraphPad software. kcat values were calculated under the assumption that each protease was 100% active.

FAP = target: T2, FAP (Homo sapiens, UniProt Q12884); test: Hydrolysis of C-terminal coumarin dipeptide substrates by FAP (kinetic constants); set-up: FAP (amino acids 38-760); FLAG (N); made in house; host or cells: 293 cells (secreted, purified from serum-free conditioned media); conditions: protease FAP; unblocked vs N-blocked substrate
T2 sequence (Q12884 38-760): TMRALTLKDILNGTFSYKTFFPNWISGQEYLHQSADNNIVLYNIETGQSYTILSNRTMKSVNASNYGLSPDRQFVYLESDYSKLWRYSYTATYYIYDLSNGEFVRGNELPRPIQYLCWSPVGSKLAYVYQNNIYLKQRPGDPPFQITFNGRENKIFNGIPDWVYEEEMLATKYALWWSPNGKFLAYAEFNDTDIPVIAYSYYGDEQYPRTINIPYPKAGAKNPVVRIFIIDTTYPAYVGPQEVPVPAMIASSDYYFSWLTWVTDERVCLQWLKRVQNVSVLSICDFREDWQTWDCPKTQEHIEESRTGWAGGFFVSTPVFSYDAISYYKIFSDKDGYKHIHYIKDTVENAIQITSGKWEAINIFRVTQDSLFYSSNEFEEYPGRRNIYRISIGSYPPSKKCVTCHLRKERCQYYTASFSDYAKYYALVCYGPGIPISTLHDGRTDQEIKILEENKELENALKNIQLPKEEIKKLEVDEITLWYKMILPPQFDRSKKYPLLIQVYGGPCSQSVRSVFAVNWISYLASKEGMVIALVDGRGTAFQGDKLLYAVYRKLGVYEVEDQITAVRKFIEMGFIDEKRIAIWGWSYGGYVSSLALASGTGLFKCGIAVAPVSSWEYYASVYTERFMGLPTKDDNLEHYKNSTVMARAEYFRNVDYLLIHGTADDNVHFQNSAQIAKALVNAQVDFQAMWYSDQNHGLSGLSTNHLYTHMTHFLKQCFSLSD
Protocol: as §1
(§3) The cleavage (hydrolysis) rates of various C-terminal coumarin dipeptide substrates 7-16 by FAP and DPP-4 were measured (Tables 4 and 5). The amino-terminus of the substrates was unblocked and the amino acids were varied in Table 4. The amino-terminus of the substrates was blocked and the amino acids were varied in Table 5. To extend the results obtained with the dipeptide substrate library, kinetic parameters were determined for cleavage of the unblocked dipeptide substrates by FAP (Table 4). The catalytic efficiency (kcat/Km) for substrate cleavage was greatest with Ile-Pro-AFC, followed by Ala-Pro-, Gly-Pro- and Phe-Pro-AFC, consistent with the dipeptide substrate library results (FIG. 5). […] Kinetic constants for cleavage of Ala-Pro-AFC and Gly-Pro-AFC by DPP-4 were determined (Table 4). The catalytic efficiency for Ala-Pro-AFC hydrolysis was greater than that for Gly-Pro-AFC, and consistent with the dipeptide library.
as §2
(§4) When saturating amounts of substrate could not be achieved, catalytic efficiencies (kcat/Km) were determined under pseudo-first order conditions ([S]<<the estimated Km) and fit to the following equation: Ln[St/S0]=−kobst, where St is the concentration of substrate remaining at time t, S0 is the initial substrate concentration and kobs is the apparent first order substrate cleavage constant equal to (kcat/Km) times ET, the total enzyme concentration (Copeland, R. (2000) Enzymes, A Practical Introduction to Structure, Mechanism, and Data Analysis, 2nd Ed., John Wiley and Sons, Inc, New York). The linear relationship of Ln[St/S0] versus time allows calculation of kcat/Km by dividing the slope of the plot by ET.

DPP-9 = target: T3, DPP-9 (Homo sapiens, UniProt Q86TI2); test: Relative cleavage of unblocked and N-blocked Gly-Pro-AFC by DPP-9; conditions: protease DPP-9; unblocked vs N-blocked substrate
T3 construct: 2-864 of DPP-9; FLAG (N); made in house; host or cells: 293 cells; template plasmid from Origene
Protocol: as §1, §2

DPP-4 = DPP-4 (Homo sapiens, UniProt P27487); test: Hydrolysis of C-terminal coumarin dipeptide substrates by DPP-4 (kinetic constants); set-up: DPP-4 (amino acids 39-766); FLAG (N); made in house; host or cells: 293 cells (secreted, purified from serum-free conditioned media); conditions: protease DPP-4; unblocked vs N-blocked substrate
Protocol: as §1, §3, §2, §4

APH = target: T4, APH (Homo sapiens, UniProt P13798); test: Relative cleavage of unblocked and N-blocked Gly-Pro-AFC by APH; conditions: protease APH; unblocked vs N-blocked substrate
T4 construct: 2-732 of APH; FLAG (N); made in house; host or cells: 293 cells; template plasmid from Origene
T4 sequence (P13798 2-732): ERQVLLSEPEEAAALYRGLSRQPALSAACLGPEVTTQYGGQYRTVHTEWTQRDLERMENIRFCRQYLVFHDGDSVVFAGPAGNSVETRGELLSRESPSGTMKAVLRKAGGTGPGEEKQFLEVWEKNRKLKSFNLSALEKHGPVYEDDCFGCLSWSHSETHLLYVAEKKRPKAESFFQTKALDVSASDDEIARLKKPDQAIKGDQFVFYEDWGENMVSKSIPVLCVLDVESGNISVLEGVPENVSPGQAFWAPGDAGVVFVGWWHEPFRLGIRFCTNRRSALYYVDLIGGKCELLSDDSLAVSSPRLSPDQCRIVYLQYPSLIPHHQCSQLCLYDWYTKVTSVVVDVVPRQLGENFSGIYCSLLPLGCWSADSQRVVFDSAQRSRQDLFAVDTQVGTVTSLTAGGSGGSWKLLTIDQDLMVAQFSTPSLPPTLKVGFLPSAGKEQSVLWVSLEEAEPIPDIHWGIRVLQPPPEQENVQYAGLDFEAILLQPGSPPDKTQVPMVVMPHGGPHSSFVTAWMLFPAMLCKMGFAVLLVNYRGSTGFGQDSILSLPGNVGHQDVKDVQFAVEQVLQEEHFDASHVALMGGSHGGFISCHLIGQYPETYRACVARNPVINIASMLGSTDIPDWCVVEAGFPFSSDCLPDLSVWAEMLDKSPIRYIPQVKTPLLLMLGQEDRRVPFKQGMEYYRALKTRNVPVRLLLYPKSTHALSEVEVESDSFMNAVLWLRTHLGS
Protocol: as §1, §2

DPP-7 = target: T5, DPP-7 (Homo sapiens, UniProt Q9UHL4); test: Relative cleavage of unblocked and N-blocked Gly-Pro-AFC by DPP-7; conditions: protease DPP-7; unblocked vs N-blocked substrate
T5 construct: These constructs encoded amino acids 26-492 of DPP-7; FLAG (N); made in house; host or cells: 293 cells; template plasmid from Origene
Protocol: as §1, §2

POP = target: T6, POP (Homo sapiens, UniProt P48147); test: Inhibition of POP by N-blocked boroPro compounds
T6 construct: 2-710 of POP; FLAG (N); made in house; host or cells: 293 cells; template plasmid from Origene
T6 sequence (P48147 2-710): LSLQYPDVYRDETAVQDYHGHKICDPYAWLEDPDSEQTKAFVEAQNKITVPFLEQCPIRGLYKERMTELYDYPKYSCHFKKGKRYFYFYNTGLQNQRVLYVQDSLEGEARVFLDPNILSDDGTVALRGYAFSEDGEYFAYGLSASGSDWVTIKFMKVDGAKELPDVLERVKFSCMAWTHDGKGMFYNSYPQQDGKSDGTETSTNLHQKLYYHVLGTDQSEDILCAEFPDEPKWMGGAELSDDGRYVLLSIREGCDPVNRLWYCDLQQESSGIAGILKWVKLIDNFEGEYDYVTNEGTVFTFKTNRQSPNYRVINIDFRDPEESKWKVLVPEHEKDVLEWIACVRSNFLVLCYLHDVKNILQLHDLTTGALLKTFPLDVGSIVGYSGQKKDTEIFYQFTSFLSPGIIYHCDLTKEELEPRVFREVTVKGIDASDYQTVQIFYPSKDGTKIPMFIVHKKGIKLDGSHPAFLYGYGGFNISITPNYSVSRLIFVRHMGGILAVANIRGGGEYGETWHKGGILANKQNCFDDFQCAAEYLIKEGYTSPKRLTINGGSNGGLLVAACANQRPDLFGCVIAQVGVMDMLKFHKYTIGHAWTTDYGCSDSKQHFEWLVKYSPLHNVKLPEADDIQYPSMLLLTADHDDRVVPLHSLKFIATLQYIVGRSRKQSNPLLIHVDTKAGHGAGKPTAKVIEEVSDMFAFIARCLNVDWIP
Protocol: Briefly, proteases were added to a reaction mixture containing inhibitor and substrate (Ac-Ala-AMC for APH, Z-Gly-Pro-AMC for POP, and Ala-Pro-AFC for all others) in assay buffer at 23° C. Protease activity was followed continuously as described above to monitor time-dependent inhibition. Data were plotted as V0/Vi−1 versus [I], where V0 is the rate if substrate hydrolysis in the absence of inhibitor, Vi is the steady state rate of substrate hydrolysis in the presence of inhibitor and [I] is the concentration of Ac-Gly-BoroPro.
KI values for inhibition of proteases by 5 were determined using the method of progress curves. Briefly, proteases (10-100 nM) were added to a reaction mixture containing inhibitor 5 (0-10 μM) and substrate AP-AFC in assay buffer at 23° C. […] Data were plotted as V0/Vi−1 versus [I], where V0 is the rate if substrate hydrolysis in the absence of inhibitor, Vi is the steady state rate of substrate hydrolysis in the presence of inhibitor and [I] is the concentration of 5. […] Ki, the true equilibrium inhibition constant was determined according to the following relationship: Ki=Kobs/(1+[S]/Km), where [S] is the concentration of substrate used in the assay and Km is the Michaelis constant for substrate cleavage.
Plasmids encoding full-length proteases were obtained from Origene Technologies Inc., Rockville Md. […]

T3 sequence (Q86TI2 2-863 limits assumed): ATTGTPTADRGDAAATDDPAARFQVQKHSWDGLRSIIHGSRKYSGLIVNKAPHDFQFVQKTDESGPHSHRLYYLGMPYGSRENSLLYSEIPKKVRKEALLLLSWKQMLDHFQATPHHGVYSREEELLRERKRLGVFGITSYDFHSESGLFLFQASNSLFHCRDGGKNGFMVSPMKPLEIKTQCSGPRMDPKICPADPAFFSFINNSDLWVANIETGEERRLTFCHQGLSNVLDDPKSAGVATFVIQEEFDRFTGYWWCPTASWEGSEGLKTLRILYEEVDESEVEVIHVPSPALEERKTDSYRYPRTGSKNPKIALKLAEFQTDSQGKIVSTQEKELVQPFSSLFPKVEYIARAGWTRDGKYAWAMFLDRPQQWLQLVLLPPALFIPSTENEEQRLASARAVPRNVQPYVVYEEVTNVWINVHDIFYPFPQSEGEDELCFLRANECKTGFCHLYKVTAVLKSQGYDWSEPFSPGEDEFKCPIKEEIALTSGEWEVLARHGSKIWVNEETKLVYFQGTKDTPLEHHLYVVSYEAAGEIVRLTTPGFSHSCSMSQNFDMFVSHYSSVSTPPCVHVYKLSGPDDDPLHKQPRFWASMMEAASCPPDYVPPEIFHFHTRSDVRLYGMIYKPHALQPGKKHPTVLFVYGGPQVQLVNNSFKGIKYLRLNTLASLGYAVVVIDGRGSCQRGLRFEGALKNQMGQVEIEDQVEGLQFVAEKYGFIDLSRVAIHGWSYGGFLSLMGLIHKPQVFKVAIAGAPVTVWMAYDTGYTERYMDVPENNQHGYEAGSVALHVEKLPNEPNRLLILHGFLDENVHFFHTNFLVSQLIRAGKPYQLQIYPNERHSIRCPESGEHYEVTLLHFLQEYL
T1 sequence (Q6V1X1 18-898 limits assumed): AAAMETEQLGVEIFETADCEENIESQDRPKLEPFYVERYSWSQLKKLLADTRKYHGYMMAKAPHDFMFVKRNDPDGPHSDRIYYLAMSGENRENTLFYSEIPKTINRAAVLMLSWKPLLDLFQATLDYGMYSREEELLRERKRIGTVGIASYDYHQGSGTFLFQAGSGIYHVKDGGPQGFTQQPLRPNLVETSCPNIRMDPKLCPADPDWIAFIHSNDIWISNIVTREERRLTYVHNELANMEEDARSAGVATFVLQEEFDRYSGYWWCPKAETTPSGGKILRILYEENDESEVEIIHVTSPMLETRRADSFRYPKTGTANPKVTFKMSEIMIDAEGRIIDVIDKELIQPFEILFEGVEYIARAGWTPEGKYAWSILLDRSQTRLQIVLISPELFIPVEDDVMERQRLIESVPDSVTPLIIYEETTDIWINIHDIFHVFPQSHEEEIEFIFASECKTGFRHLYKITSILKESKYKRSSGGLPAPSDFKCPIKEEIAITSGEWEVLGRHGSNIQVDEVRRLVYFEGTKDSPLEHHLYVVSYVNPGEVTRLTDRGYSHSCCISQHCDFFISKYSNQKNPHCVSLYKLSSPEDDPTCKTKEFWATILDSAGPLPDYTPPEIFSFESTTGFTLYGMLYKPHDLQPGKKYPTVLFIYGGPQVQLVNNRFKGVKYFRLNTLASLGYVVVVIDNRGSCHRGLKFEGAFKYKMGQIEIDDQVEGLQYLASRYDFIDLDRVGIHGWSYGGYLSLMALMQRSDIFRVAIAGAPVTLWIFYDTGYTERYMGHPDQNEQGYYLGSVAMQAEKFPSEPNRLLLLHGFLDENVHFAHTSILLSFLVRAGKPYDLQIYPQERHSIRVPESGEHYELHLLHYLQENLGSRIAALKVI
DPP-4, sequence (P27487 39-766): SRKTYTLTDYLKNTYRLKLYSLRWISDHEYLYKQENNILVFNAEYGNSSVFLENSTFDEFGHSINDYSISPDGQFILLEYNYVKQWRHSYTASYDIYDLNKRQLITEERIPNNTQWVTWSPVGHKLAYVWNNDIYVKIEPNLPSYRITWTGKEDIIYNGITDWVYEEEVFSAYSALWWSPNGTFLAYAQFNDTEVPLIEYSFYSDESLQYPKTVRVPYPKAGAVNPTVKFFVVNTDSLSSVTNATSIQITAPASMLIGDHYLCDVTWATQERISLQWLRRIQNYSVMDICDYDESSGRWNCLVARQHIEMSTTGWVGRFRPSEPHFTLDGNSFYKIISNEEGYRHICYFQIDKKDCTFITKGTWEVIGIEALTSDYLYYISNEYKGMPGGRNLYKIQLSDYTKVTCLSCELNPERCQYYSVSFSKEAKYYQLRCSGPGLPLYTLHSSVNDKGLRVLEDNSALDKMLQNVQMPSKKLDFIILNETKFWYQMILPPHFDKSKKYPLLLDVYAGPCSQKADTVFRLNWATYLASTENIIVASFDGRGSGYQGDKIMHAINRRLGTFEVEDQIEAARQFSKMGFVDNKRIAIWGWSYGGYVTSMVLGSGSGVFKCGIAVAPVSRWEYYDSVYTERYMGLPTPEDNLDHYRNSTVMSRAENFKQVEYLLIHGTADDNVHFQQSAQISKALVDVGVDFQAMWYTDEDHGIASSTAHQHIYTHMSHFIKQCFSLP

NCC(=O)N1CCCC1C(=O)Nc1ccc2c(C(F)(F)F)c(CC(N)=O)c(=O)oc2c1 (stereo not drawn) [Gly-Pro-AFC 7, Gly-Pro-AFC]
Relative Activity Gly-Pro-AFC 7/Ac-Gly-Pro-AFC 8 (DPP-8): 33
Relative Activity Gly-Pro-AFC 7/Ac-Gly-Pro-AFC 8 (FAP): 1.0
Relative Activity Gly-Pro-AFC 7/Ac-Gly-Pro-AFC 8 (DPP-9): 10,000
Relative Activity Gly-Pro-AFC 7/Ac-Gly-Pro-AFC 8 (DPP-4): 10,000
Relative Activity Gly-Pro-AFC 7/Ac-Gly-Pro-AFC 8 (APH): no cleavage
Relative Activity Gly-Pro-AFC 7/Ac-Gly-Pro-AFC 8 (DPP-7): 200

CC(C)C(=O)N(C)CC(=O)N1CCCC1B(O)O (stereo not shown) [N-isobutyryl-sarcosyl-boroPro]
Ki (POP): 0.063 µM
